Reference: patent US20110136791A1, “COMBINATION OF A NICOTINIC RECEPTOR PARTIAL AGONIST AND OF AN ACETYLCHOLINESTERASE INHIBITOR, PHARMACEUTICAL COMPOSITION CONTAINING SAME AND USE THEREOF IN THE TREATMENT OF COGNITIVE DISORDERS” (priority 2008, published 2011)

How the values were obtained:
rats with no deficit = assay: Test for spontaneous forgetting in rats with no deficit (object recognition test, visual episodic memory); assay type: in vivo; conditions: rat; for Exploration time, familiar object (recalling session) / Exploration time, new object (recalling session) / Recognition index (new/(new + familiar)): p.o. 60 min before each session, 24 h forgetting period, group 2: 0.1 mg/kg, group 3: rivastigmine 0.03 mg/kg, group 4: 0.01 + 0.03 mg/kg; for Exploration time, familiar object (recalling session) / Exploration time, new object (recalling session): 3 min test; for Discrimination between the familiar object and the new object during the recalling session (in words): p.o., inactive doses, 24 hours after the learning session
Protocol: 1. Test for Spontaneous Forgetting in Rats with No Deficit
1.) Accustomization phase: In this protocol, the animals are first subjected to a session of accustomization to the environmental context (a wooden chamber of 65×45×45 cm) for a period of 2 minutes. The time spent in active locomotion is measured using a timer. 2.) Learning phase: 24 hours later, two exactly identical objects (either metal triangles or pyramids made of Lego) are placed in the experimental device. Each rat is placed in the middle of the chamber, the nose against the wall opposite that where the objects/stimulus are located. The pairs of objects presented are alternated equitably in each of the groups of rats. The animals are left in the experimental chamber until they reach a period of exploration of the two objects equal to 20 seconds, out of a maximum period of 3 minutes. As soon as the 20 seconds of exploration are reached, the rat is put back in its housing cage. […] 3.) Recalling session: The recalling session takes place after a forgetting period of 24 h for all the groups. The rats are confronted with a pair of objects consisting of the object encountered during the learning phase and an unknown object. The rats are placed in the same way as for the learning session.
This test lasts 3 minutes, during which the time spent exploring each of the 2 objects is measured.
Conversely, if the animal has forgotten the familiar object, the times spent exploring the new object and the familiar object will be similar.
(§1) For the learning and recalling sessions, the exploring of an object is counted if the animal orients its nose toward the object, inside a perimeter of 2 centimeters around said object, or if it touches it with its nose or with its feet. If the rat moves around the object or sits on it, these behaviors are not considered to be exploratory.
(§2) The raw data are expressed in seconds.
The test compounds are administered orally 60 minutes (rat study) before each of the three sessions of the protocol.
Four experimental groups are formed, said groups receiving, respectively:
During the recalling session, 24 hours after the learning session, the times spent exploring the two objects, expressed in seconds, and the recognition index (time spent exploring the new object/total time spent exploring the new and familiar objects) are measured. • Similar exploration times with respect to the familiar object and to the new object reflect the fact that the familiar object has been forgotten, and therefore that there is a visual episodic memory deficit.
Conversely, a longer exploration time for the new object than for the familiar object reflects significant recollection of the familiar object and therefore an improvement in visual episodic memory. • A relatively low recognition index reflects the fact that the familiar object has been forgotten, and therefore that there is a visual episodic memory deficit.
Conversely, a high recognition index reflects significant recollection of the familiar object, and therefore an improvement in visual episodic memory.
The above doses are expressed in base equivalent.

[1] = tested on: CD1-strain mice injected ICV with Aβ25-35 peptide; assay: Test of short-term visual episodic memory deficit induced by ICV injections of β-amyloid protein 25-35 in mice (object recognition); assay type: in vivo, mouse; conditions: Aβ25-35 mice; for Effect on short-term recall performance levels (in words): 0.1 mg/kg each, intraperitoneally; for Exploration time, familiar object (recalling session) / Exploration time, new object (recalling session) / Recognition index (new/(new + familiar)): intraperitoneally 60 min before each session, 1 hour forgetting period, each active 0.1 mg/kg (base equivalent); for Exploration time, familiar object (recalling session) / Exploration time, new object (recalling session): 5 min test
Protocol: 2. Test of short-term visual episodic memory deficit induced by intracerebroventricular (ICV) injections of β-amyloid protein 25-35 in mice
The Aβ25-35 peptide fragment contains the 11 amino acids necessary and sufficient for inducing neurological toxicity.
The Aβ25-35 amyloid peptide is dissolved in distilled water at a final concentration of 3 mg/ml. It is then incubated at 37° C. for 4 days in order to form aggregates of toxic peptide. The control animals receive the scrambled peptide, consisting of the same amino acids, but organized according to a random sequence.
The peptide is injected intracerebroventricularly into CD1-strain mice anaesthetized with isoflurane. A microsyringe fitted with a 28-gauge needle 3 mm long is used. The needle is inserted unilaterally, 1 mm to the right of the central line equidistant from each eye and at an equal distance between the axis of the eyes and the axis of the ears. 3 μl of the aggregated peptide are injected over a period of one minute. The mice are used for the behavioral tests between 6 and 14 days after the intracerebral injection.
1.) Accustomization phase: In this protocol, the mice are first subjected to a session of accustomization to the environmental context (light grey PVC chain of 52×52×40 cm, illumination at 6 Lux) for a period of 10 minutes. The time spent in active locomotion is measured using a timer. 2.) Learning phase: 24 hours later, two exactly identical objects (either metal triangles (5.5×3.3 cm), or a square red Lego brick (3.0×3.0×3.0 cm)) are placed in the experimental device. Each mouse is placed in the middle of the chamber, the nose against the wall opposite that where the objects/stimulus are located. The pairs of objects presented are alternated equitably in each of the groups of mice. The animals are left in the experimental chamber until they reach a time spent exploring the two objects equal to 10 seconds, out of a maximum period of 3 minutes. As soon as the 10 seconds of exploration are reached, the mouse is put back in its housing cage.
3.) Recalling session: The recalling session takes place after a forgetting period of 1 hour for all the groups. […] The mice are confronted with a pair of objects consisting of the object encountered during the learning phase and an unknown object. The mice are placed in the chamber in the same way as for the learning session.
This test lasts 5 minutes, during which the time spent exploring each of the 2 objects is measured.
as §1, with “exploration” for “exploring”, “cm” for “centimeters”, “or” for “or with”
as §2
The compounds to be tested are administered intraperitoneally, 60 minutes before each of the three sessions of the protocol.
Five experimental groups were formed, receiving, respectively:
During the recalling session, i.e. 1 hour after the learning session, the times spent exploring the two objects, expressed in seconds, are measured. • Similar exploration times with respect to the familiar object and to the new object reflect the fact that the familiar object has been forgotten, and therefore that there is complete abolition of the short-term recall performance levels. • Conversely, a longer exploration time for the new object compared with the familiar object reflects a good short-term memory recall performance level.

SMILES | Exploration time, familiar object (recalling session) (rats with no deficit) [s] | Exploration time, new object (recalling session) (rats with no deficit) [s] | Recognition index (new/(new + familiar)) (rats with no deficit) | Discrimination between the familiar object and the new object during the recalling session (in words) (rats with no deficit) | Effect on short-term recall performance levels (in words) [1] | Exploration time, familiar object (recalling session) [1] [s] | Exploration time, new object (recalling session) [1] [s] | Recognition index (new/(new + familiar)) [1]
CCN(C)C(=O)Oc1cccc([C@H](C)N(C)C)c1 [rivastigmine] | 10.10 ± 1.56 | 9.42 ± 1.86 | 0.48 ± 0.05 | no significant discrimination between the familiar object and the new object |  |  |  | 
O=C(O)/C=C/C(=O)O.O=C(Oc1ccc(Br)cc1)N1CCN2CCC1CC2 [4-bromophenyl 1,4-diazabicyclo[3.2.2]nonane-4-carboxylate (2E)-but-2-enedioate] | 10.47 ± 0.84 | 11.10 ± 1.44 | 0.50 ± 0.04 | no significant discrimination between the familiar object and the new object | do not result in an improvement in performance levels | 4.30 ± 0.70 | 6.30 ± 0.60 | 0.60 ± 0.04
COc1cc2c(cc1OC)C(=O)C(CC1CCN(Cc3ccccc3)CC1)C2 (stereo not shown) [donepezil] |  |  |  |  | do not result in an improvement in performance levels | 4.60 ± 0.70 | 5.00 ± 0.80 | 0.52 ± 0.05
